Measured values from ChEMBL document CHEMBL1150184, “CAF-603: a new antifungal carotane sesquiterpene. Isolation and structure elucidation” (1990).
Values after ≈ are worked out from the molar mass of the structure shown.

What was measured:
Assay type in all cases: functional
[1] = test system: Candida albicans; assay: microbe, parasite or virus in culture; conditions: IAM 4888, 24 h
Description: Antifungal activity against Candida albicans IAM 4888 after 24 hrs in Sabouraud agar medium by agar dilution method

[2] = test system: Candida albicans; assay: microbe, parasite or virus in culture; conditions: IAM 4888, 24 h; remark: listed apart in the source
Description: Antifungal activity against Candida albicans IAM 4888 after 24 hrs in Yeast morphology agar medium by agar dilution method

[3] = test system: Candida albicans; assay: microbe, parasite or virus in culture; conditions: NHL 4019, 24 h
Description: Antifungal activity against Candida albicans NHL 4019 after 24 hrs in Sabouraud agar medium by agar dilution method

[4] = test system: Candida albicans; assay: microbe, parasite or virus in culture; conditions: NHL 4019, 24 h; remark: listed apart in the source
Description: Antifungal activity against Candida albicans NHL 4019 after 24 hrs in Yeast morphology agar medium by agar dilution method

[5] = test system: Meyerozyma guilliermondii; assay: Antifungal activity against Candida guilliermondii JTD after 24 hrs in Sabouraud agar medium by agar dilution method
[6] = test system: Meyerozyma guilliermondii; assay: Antifungal activity against Candida guilliermondii JTD after 24 hrs in Yeast morphology agar medium by agar dilution method
[7] = test system: Pichia kudriavzevii; assay: microbe, parasite or virus in culture; conditions: IAM 4801, 24 h
Description: Antifungal activity against Candida krusei IAM 4801 after 24 hrs in Sabouraud agar medium by agar dilution method

[8] = test system: Pichia kudriavzevii; assay: microbe, parasite or virus in culture; conditions: IAM 4801, 24 h; remark: listed apart in the source
Description: Antifungal activity against Candida krusei IAM 4801 after 24 hrs in Yeast morphology agar medium by agar dilution method

[9] = test system: Candida tropicalis; assay: microbe, parasite or virus in culture; conditions: IAM 4924, 24 h
Description: Antifungal activity against Candida tropicalis IAM 4924 after 24 hrs in Sabouraud agar medium by agar dilution method

[10] = test system: Candida tropicalis; assay: microbe, parasite or virus in culture; conditions: IAM 4924, 24 h; remark: listed apart in the source
Description: Antifungal activity against Candida tropicalis IAM 4924 after 24 hrs in Yeast morphology agar medium by agar dilution method

[11] = test system: Candida albicans; assay: Antifungal activity against Candida albicans MCNH1 after 24 hrs in Sabouraud agar medium by agar dilution method; conditions: MCNH1, 24 h
[12] = test system: Candida albicans; assay: Antifungal activity against Candida albicans MCNH1 after 24 hrs in Yeast morphology agar medium by agar dilution method; conditions: MCNH1, 24 h
[13] = test system: Candida albicans; assay: Antifungal activity against Candida albicans MCNH2 after 24 hrs in Sabouraud agar medium by agar dilution method; conditions: MCNH2, 24 h
[14] = test system: Candida albicans; assay: Antifungal activity against Candida albicans MCNH2 after 24 hrs in Yeast morphology agar medium by agar dilution method; conditions: MCNH2, 24 h
[15] = test system: Candida albicans; assay: Antifungal activity against Candida albicans MCNH3 after 24 hrs in Sabouraud agar medium by agar dilution method; conditions: MCNH3, 24 h
[16] = test system: Candida albicans; assay: Antifungal activity against Candida albicans MCNH3 after 24 hrs in Yeast morphology agar medium by agar dilution method; conditions: MCNH3, 24 h
[17] = test system: Candida albicans; assay: Antifungal activity against Candida albicans MCNH4 after 24 hrs in Sabouraud agar medium by agar dilution method; conditions: MCNH4, 24 h
[18] = test system: Candida albicans; assay: Antifungal activity against Candida albicans MCNH4 after 24 hrs in Yeast morphology agar medium by agar dilution method; conditions: MCNH4, 24 h
[19] = test system: Saccharomyces cerevisiae; assay: Antifungal activity against Saccharomyces cerevisiae IAM 4500 after 24 hrs in Sabouraud agar medium by agar dilution method; conditions: IAM 4500, 24 h
[20] = test system: Saccharomyces cerevisiae; assay: Antifungal activity against Saccharomyces cerevisiae IAM 4500 after 24 hrs in Yeast morphology agar medium by agar dilution method; conditions: IAM 4500, 24 h
[21] = test system: Saccharomyces cerevisiae; assay: microbe, parasite or virus in culture; conditions: IAM 4203, 24 h
Description: Antifungal activity against Saccharomyces cerevisiae IAM 4203 after 24 hrs in Sabouraud agar medium by agar dilution method

[22] = test system: Saccharomyces cerevisiae; assay: microbe, parasite or virus in culture; conditions: IAM 4203, 24 h; remark: listed apart in the source
Description: Antifungal activity against Saccharomyces cerevisiae IAM 4203 after 24 hrs in Yeast morphology agar medium by agar dilution method

[23] = test system: Nakaseomyces glabratus; assay: microbe, parasite or virus in culture; conditions: OUT 6189, 24 h
Description: Antifungal activity against Torulopsis glabrata OUT 6189 after 24 hrs in Sabouraud agar medium by agar dilution method

[24] = test system: Aspergillus fumigatus; assay: Antifungal activity against Aspergillus fumigatus IAM 2400 after 24 hrs in Sabouraud agar medium by agar dilution method; conditions: IAM 2400, 24 h
[25] = test system: Aspergillus fumigatus; assay: Antifungal activity against Aspergillus fumigatus IAM 2400 after 24 hrs in Yeast morphology agar medium by agar dilution method; conditions: IAM 2400, 24 h
[26] = test system: Aspergillus niger; assay: Antifungal activity against Aspergillus niger NHL after 24 hrs in Sabouraud agar medium by agar dilution method
[27] = test system: Aspergillus niger; assay: Antifungal activity against Aspergillus niger NHL after 24 hrs in Yeast morphology agar medium by agar dilution method
[28] = test system: Rhizopus arrhizus; assay: microbe, parasite or virus in culture; conditions: IAM 6052, 24 h
Description: Antifungal activity against Rhizopus arrhizus IAM 6052 after 24 hrs in Yeast morphology agar medium by agar dilution method

[29] = test system: Rhizopus arrhizus; assay: microbe, parasite or virus in culture; conditions: IAM 6052, 24 h; remark: listed apart in the source
Description: Antifungal activity against Rhizopus arrhizus IAM 6052 after 24 hrs in Sabouraud agar medium by agar dilution method

SMILES	MIC [1] [µg/mL]	MIC [2] [µg/mL]	MIC [3] [µg/mL]	MIC [4] [µg/mL]	MIC [5] [µg/mL]	MIC [6] [µg/mL]	MIC [7] [µg/mL]	MIC [8] [µg/mL]	MIC [9] [µg/mL]	MIC [10] [µg/mL]	MIC [11] [µg/mL]	MIC [12] [µg/mL]	MIC [13] [µg/mL]	MIC [14] [µg/mL]	MIC [15] [µg/mL]	MIC [16] [µg/mL]	MIC [17] [µg/mL]	MIC [18] [µg/mL]	MIC [19] [µg/mL]	MIC [20] [µg/mL]	other results
CC1=CC[C@@]2(C)C[C@H](O)[C@@](O)(C(C)C)[C@@H]2CC1	12.5 (≈ 52.4 µM)	1.56 (≈ 6.54 µM)	0.8 (≈ 3.36 µM)	0.4 (≈ 1.68 µM)	> 100	> 100	25 (≈ 105 µM)	25 (≈ 105 µM)	> 100	50 (≈ 210 µM)	6.25 (≈ 26.2 µM)	3.13 (≈ 13.1 µM)	3.13 (≈ 13.1 µM)	1.56 (≈ 6.54 µM)	12.5 (≈ 52.4 µM)	3.13 (≈ 13.1 µM)	6.25 (≈ 26.2 µM)	1.56 (≈ 6.54 µM)	> 100	> 100	MIC [21]: 3.13 µg/mL (≈ 13.1 µM); MIC [22]: 1.56 µg/mL (≈ 6.54 µM); MIC [23]: 50 µg/mL (≈ 210 µM); MIC [24]: 25 µg/mL (≈ 105 µM); MIC [25]: 12.5 µg/mL (≈ 52.4 µM); MIC [26]: 100 µg/mL (≈ 420 µM); MIC [27]: 12.5 µg/mL (≈ 52.4 µM); MIC [28]: > 100 µg/mL; MIC [29]: > 100 µg/mL
Clc1ccc(COC(Cn2ccnc2)c2ccc(Cl)cc2Cl)c(Cl)c1.O=[N+]([O-])O (stereo not drawn) [MICONAZOLE NITRATE]	6.25	3.13	0.05	< 0.05	6.25	3.13	0.8	0.8	12.5	6.25	12.5	12.5	6.25	12.5	3.13	12.5	6.25	6.25	3.13	12.5	MIC [21]: 6.25 µg/mL; MIC [22]: 1.56 µg/mL; MIC [23]: 6.25 µg/mL; MIC [24]: 0.8 µg/mL; MIC [25]: 1.56 µg/mL; MIC [26]: 3.13 µg/mL; MIC [27]: 3.13 µg/mL; MIC [28]: 0.2 µg/mL; MIC [29]: 0.4 µg/mL
